Measured values reported in patent US8048895B2, “Kappa opioid receptor ligands” (priority 2008, dated 2011).

How the values were obtained:
Format in all cases: biochemical
[1] = biological target: T1, cloned human μ opioid receptor (Homo sapiens, UniProt P35372); experiment: Inhibition of DAMGO-stimulated [35S]GTPγS binding
T1 construct: expressed in transfected cells
Description: (§1) Measures of opioid receptor antagonism and specificity were obtained by monitoring the ability of selected test compounds to inhibit stimulation of [^35S]GTPγS binding produced by the selective agonists (D-Ala^2, MePhe^4, Gly-ol^5)enkephalin (DAMGO, mu receptor), cyclo[D-Pen^2, D-Pen^5]enkephalin (DPDPE, delta) and 5,7,8-(−)-N-methyl-N-[7-(1-pyrrolidinyl)-1-oxaspiro[4,5]dec-8-yl]benzeneacetamide (U69,593, kappa) in cloned human receptors, Table 1.

[2] = biological target: T2, cloned human δ opioid receptor (Homo sapiens, UniProt P41143); experiment: Inhibition of DPDPE-stimulated [35S]GTPγS binding; conditions: read-out: δ, DPDPE Ke
T2 construct: expressed in transfected cells
Description: as §1

[3] = biological target: T3, cloned human κ opioid receptor (Homo sapiens, UniProt P41145); experiment: Inhibition of U69,593-stimulated [35S]GTPγS binding
T3 construct: expressed in transfected cells
Description: as §1

T3 sequence (P41145 whole entry): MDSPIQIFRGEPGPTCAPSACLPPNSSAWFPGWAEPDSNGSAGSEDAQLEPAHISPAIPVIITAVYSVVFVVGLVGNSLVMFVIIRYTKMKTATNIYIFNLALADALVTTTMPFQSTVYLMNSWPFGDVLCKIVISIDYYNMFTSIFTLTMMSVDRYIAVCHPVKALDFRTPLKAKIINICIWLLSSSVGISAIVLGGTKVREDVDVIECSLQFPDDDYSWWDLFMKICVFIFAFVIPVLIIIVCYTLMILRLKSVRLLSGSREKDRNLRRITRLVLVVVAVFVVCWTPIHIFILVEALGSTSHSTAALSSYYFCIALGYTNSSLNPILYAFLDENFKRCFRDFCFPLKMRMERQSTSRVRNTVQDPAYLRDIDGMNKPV
T1 sequence (P35372 whole entry): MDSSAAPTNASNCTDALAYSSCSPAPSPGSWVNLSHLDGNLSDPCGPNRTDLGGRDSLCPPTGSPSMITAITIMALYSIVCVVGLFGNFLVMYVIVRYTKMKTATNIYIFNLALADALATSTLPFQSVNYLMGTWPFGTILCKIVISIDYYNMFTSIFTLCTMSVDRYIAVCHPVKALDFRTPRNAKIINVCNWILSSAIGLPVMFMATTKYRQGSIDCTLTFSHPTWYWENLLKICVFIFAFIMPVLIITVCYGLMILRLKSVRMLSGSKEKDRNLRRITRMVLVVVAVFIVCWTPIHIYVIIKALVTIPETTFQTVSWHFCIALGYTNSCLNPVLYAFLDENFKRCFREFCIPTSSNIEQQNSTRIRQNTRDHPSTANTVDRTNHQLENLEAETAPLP
T2 sequence (P41143 whole entry): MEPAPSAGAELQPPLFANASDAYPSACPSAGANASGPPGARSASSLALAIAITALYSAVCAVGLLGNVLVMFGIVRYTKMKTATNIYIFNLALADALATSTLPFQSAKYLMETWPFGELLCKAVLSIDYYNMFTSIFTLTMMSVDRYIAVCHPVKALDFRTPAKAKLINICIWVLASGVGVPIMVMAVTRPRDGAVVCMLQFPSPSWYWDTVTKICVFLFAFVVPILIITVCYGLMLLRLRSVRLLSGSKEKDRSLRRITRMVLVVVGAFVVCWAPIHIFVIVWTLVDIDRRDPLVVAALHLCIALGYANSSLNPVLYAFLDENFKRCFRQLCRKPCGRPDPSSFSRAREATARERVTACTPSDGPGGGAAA

CC(C)[C@@H](CN1CC[C@@](C)(c2cccc(O)c2)[C@@H](C)C1)NC(=O)[C@@]1(C)Cc2ccc(O)cc2CN1 [RTI-5989-240, (3R)-7-Hydroxy-N-[(1S)-1-{[(3R,4R)-4-(3-hydroxyphenyl)-3,4-dimethylpiperidin-1-yl]methyl}-2-methylpropyl]-3-methyl-1,2,3,4-tetrahydroisoquinoline-3-carboxamide]
Kb [1]: 3.6 nM
μ, DAMGO Ke ([1]; inhibition of DAMGO-stimulated [35S]GTPγS binding, cloned human μ receptor): 3.6 nM
Kb [2]: 840 nM
Kb [3]: 0.03 nM
potency for the kappa opioid receptor (in words) ([3]; [35S]GTPγS in vitro functional assay): high potency
selectivity for the kappa opioid receptor relative to mu and delta (in words) ([3]; functional assay): highly selective
κ, U69,593 Ke ([3]; inhibition of U69,593-stimulated [35S]GTPγS binding, cloned human κ receptor): 0.03 nM
δ/κ ([3]; ratio of Ke values, δ over κ): 28,000
μ/κ ([3]; ratio of Ke values, μ over κ): 120
